The test concerns the target hMC4R (Homo sapiens, UniProt P32245). Nature of the test: Saturation binding of Eu-labeled probe to Hek293 cells overexpressing hMC4R. To be noted: Kd of labeled ligand compared with parental ligand MSH(4).

Structures are written as SMILES.

hMC4R, sequence (P32245 whole entry): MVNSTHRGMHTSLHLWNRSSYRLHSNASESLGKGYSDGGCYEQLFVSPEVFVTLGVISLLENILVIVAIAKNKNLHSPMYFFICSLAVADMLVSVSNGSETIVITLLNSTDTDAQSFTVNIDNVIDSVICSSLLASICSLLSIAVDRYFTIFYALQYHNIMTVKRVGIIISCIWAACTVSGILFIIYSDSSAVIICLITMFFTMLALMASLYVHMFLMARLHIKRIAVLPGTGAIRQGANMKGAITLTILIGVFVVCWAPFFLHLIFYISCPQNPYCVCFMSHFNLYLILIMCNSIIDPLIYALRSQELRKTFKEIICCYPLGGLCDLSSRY

As to `N=C(N)NCCC[C@H](NC(=O)[C@@H](Cc1ccccc1)NC(=O)[C@H](Cc1c[nH]cn1)NC(=O)COCC(=O)NCCCOCCOCCOCCCNC(=O)CN(CCN(CCN(CC(=O)O)CC(=O)O)CC(=O)O)CC(=O)O)C(=O)N[C@@H](Cc1c[nH]c2ccccc12)C(N)=O` [compound 1, Eu-DTPA-PEGO-His-DPhe-Arg-Trp-NH2], the “Affinity for hMC4R, fold lower than the parental ligand” value was “approximately 10 fold”.

Values taken from publication PMC2857964 (Bioorganic & medicinal chemistry letters, 2010).
